Experiments:
tumor cells = assay: Growth in mice of a small number of tumor cells pre-treated with PGE2; assay type: in vivo; conditions: about 1000 tumor cells treated with PGE2 versus non-treated cells
Procedure: (§1) Growth of Fluc-labeled tumor cells in vivo was followed through non-invasive bioluminescence imaging using the IVIS200 instrument (Caliper Life Sciences, Hopkinton, Mass). Mice to be imaged were injected with 150 mg/kg of D-luciferin (obtained from Caliper Life Sciences) intraperitoneally in 200 μl of PBS and then anesthetized with continuous flow of isofluorane. Imaging of the mice was carried out 10 minutes later. The time between injection and imaging were kept constant among different batches of mice.
(§2) Different approaches were used to establish tumor growth than traditionally adopted by other studies. In most of the studies by the present inventors, a very small number of Fluc-labeled tumor cells (500-1000 cells each) was injected either alone or together with other unlabeled cells (either tumor cells or fibroblast cells) that are either irradiated or un-irradiated. Tumor growth from these cells was monitored through the quantification of bioluminescence signals emitted from labeled tumor cells using IVIS200 instrument following manufacturer's instructions. In some cases, 500-1000 Fluc labeled tumor cells were injected into (7-9 mm in diameter) tumors that have been established from unlabeled tumor cells.

4T1 cells = assay: Growth of tumor cells injected intratumorally into established tumors in mice, 4T1; assay type: in vivo, mouse; conditions: indomethacin administration
Procedure: as §1
as §2, with “cells. […]” for “cells.”

HCT116 cells = assay: Growth of tumor cells injected intratumorally into established tumors in mice, HCT116; assay type: in vivo, human; conditions: indomethacin administration
Procedure: as §1
as §2, with “cells. […]” for “cells.”

| SMILES | growth of treated tumor cells when injected into mice (tumor cells) | growth of intratumorally injected 4T1 cells (4T1 cells) | growth of intratumorally injected HCT116 cells (HCT116 cells) |
| --- | --- | --- | --- |
| CCCCC[C@H](O)/C=C/[C@H]1[C@H](O)CC(=O)[C@@H]1C/C=C\CCCC(=O)O [PGE2, prostaglandin E2] | grow at a faster pace than non-treated cells | – | – |
| COc1ccc2c(c1)c(CC(=O)O)c(C)n2C(=O)c1ccc(Cl)cc1 [indomethacin] | – | effectively suppressed growth | effectively suppressed growth |

Reference: patent US20150190456A1, “USE OF CASPASE 3 ACTIVITY AND ITS INHIBITORS” (THE REGENTS OF THE UNIVERSITY OF COLORADO, priority 2011, published 2015)
